Experimental data: patent US20200297671A1, “METHODS OF AVOIDING EXCIPIENT-BASED ADVERSE EFFECTS AND OF EXPLOITING BIOLOGICAL PROPERTIES OF GRAS COMPOUNDS” (MASSACHUSETTS INSTITUTE OF TECHNOLOGY, priority 2019, published 2020)

What was measured:
UGT = UGT tissue assay (liver lysate); format: biochemical, porcine; conditions: pig liver lysate, 500 μM
Description: Compound mixtures were prepared at 500 μM. Freshly extracted porcine liver was homogenized using a tissue homogenizer. The sample was separated using centrifugation and the supernatant was used as a test sample. Two independent experiments with two different liver extracts were performed as described for the microsomes.

Human UGT2B7 = target: T1, Human UGT2B7 (Homo sapiens, UniProt P16662); assay: UGT2B7 inhibition assay (Corning Supersomes, Biovision UGT activity kit); format: biochemical
T1 construct: purchased Corning
T1 sequence (P16662 24-529): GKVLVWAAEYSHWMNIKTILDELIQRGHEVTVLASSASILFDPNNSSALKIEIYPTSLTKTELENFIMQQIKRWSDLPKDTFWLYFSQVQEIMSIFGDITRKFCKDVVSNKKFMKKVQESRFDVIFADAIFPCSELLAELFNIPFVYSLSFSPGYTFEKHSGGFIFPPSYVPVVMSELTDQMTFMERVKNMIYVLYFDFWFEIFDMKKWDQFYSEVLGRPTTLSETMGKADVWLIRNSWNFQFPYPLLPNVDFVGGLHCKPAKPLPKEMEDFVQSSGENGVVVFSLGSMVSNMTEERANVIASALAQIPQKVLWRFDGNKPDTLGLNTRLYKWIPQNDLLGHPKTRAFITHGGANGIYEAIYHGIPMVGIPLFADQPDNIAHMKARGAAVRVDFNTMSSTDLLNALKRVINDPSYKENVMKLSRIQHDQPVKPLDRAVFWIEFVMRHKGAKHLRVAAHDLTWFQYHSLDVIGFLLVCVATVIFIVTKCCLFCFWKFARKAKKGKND
Description: UGT2B7 inhibition was measured using Corning® Supersomes™ Human UGT2B7. The inhibition of UGT2B7 was measured using the commercially-available Biovision UGT activity screening kit as previously described. Briefly, 0.1 mg/mL microsomes were mixed with Alamethicin for pore-formation and a proprietary UGT ligand that loses fluorescence after glucuronidation (Biovision). Plates were incubated for 5 minutes at RT and protected from light before the enzymatic reaction was initiated through the addition of UDPGA. […] Diclofenac (1 mM in PBS 1% DMSO) served as a positive inhibitor control.

mice = conditions: cited from earlier work
patients = conditions: cited from earlier work
P-gp = P-gp in vivo experiment (warfarin plasma concentration); parameters: species or system BALB/c mice; conditions: mice
Description: A suspension of vitamin A palmitate in 10% DMSO PBS or 10% DMSO PBS buffer control were administered orally to five female BALB/c mice at a dose of 500 mg/kg 15 minutes prior to treatment. Mice were then treated orally with warfarin 20 mg/kg. Blood was sampled after 30 minutes of oral warfarin administration. Warfarin plasma concentrations were determined using LCMS.

## CC(C)C1=CC2=CC[C@@H]3[C@](C)(CCC[C@@]3(C)C(=O)O)[C@H]2CC1 [abietic acid]
UGT
  inhibition of UGT activity ex vivo: successfully inhibited UGT activity
Human UGT2B7
  inhibition of UGT2B7 activity in microsomes (FIG. 18): can inhibit UGT2B7 activity
Human UGT2B7; functional in vitro assay, microsomes, 30 minutes
  IC50: 2200 ± 300 nM
mice
  toxicity in mice: harmless in mice

## OC[C@H]1O[C@@H](O[C@H]2[C@H](O)[C@@H](O)C(O)O[C@@H]2CO)[C@H](O)[C@@H](O)[C@H]1O (some centres unmarked) [lactose]
patients; severe cases of lactose intolerance
  amount affecting individuals: less than 200 mg

## O=C([O-])C1=NN(c2ccc(S(=O)(=O)[O-])cc2)C(=O)C1N=Nc1ccc(S(=O)(=O)[O-])cc1.[Na+].[Na+].[Na+] (centres unmarked) [tartrazine]
patients; tartrazine-containing versus tartrazine-free medications, all patients
  patients with adverse symptoms associated with tartrazine content: about 4%

## CCCCCCCCCCCCCCCC(=O)OC/C=C(C)/C=C/C=C(C)/C=C/C1=C(C)CCCC1(C)C [vitamin A palmitate]
P-gp
  systemic warfarin after oral delivery (FIG. 23): induces an increase of systemic warfarin
P-gp; 500 mg/kg oral 15 minutes before warfarin 20 mg/kg oral, blood after 30 minutes
  increase of oral absorption of warfarin: 31%
